Assays:
WI-38 cells = assay: Inhibition of human WI-38 embryonic lung cell proliferation (Cell-Titer Glo); format: cell-based; details: Homo sapiens, 72 h, 3 days incubation, read-out: Anti-Proliferative Activity Against WI-38 cells IC50
Method in brief: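 WI-38 cells in EMEM with 10% FBS, seeded 24 h, then exposed to 10-point 3-fold compound dilutions (0.25% DMSO final) for 3 days at 37 °C, 5% CO2. Viability from intracellular ATP by Cell-Titer Glo luminescence; % inhibition normalised to top/bottom signals and IC50 fitted.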

Daudi cells = assay: Inhibition of human Daudi lymphoma cell proliferation (Cell-Titer Glo); format: cell-based; details: Homo sapiens, 72 h, 3 days incubation, read-out: Anti-Proliferative Activity Against Daudi cells IC50
Method in brief: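 Daudi cells in RPMI 1640 with 10% FBS were seeded and grown 24 h, then exposed for 3 days (37 °C, 5% CO2) to 10-point 3-fold serial dilutions at 0.25% final DMSO. Viability was read by CellTiter-Glo ATP luminescence, and IC50 was fitted from % inhibition against top/bottom controls.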

[1] = Pharmacokinetic experiment in mouse; format: in vivo; details: female CB17-SCID mice, oral dose 25 mg/kg
Excerpt: CB17-SCID mice were purchased from Beijing Vital River Laboratory Animal Technology Co., Ltd.
DMSO, HP-β-CD (hydroxypropyl-β-cyclodextrin), PEG400 (polyethylene glycol 400), and Vitamin E TPGS (D-α-tocopherol polyethylene glycol 1000 succinate) were purchased from Sigma.
Six female CB17-SCID mice (20 g to 30 g, aged 4 to 6 weeks) were divided randomly into two groups, with 3 mice in each group. In Group 1, the compound in a vehicle of an aqueous solution containing 5% dimethyl sulfoxide and 95% hydroxypropyl-β-cyclodextrin (10%, w/v) was administered by intravenous injection via tail vein. In Group 2, a corresponding dose of the compound in a vehicle of an aqueous solution containing 30% polyethylene glycol 400 and 70% D-α-tocopherol polyethylene glycol 1000 succinate (10%, w/v) was orally administered. The animals were fed normally with food and water before experiment. The mice in each group underwent intravenous blood collection before administration and at 0.083 h (intravenous injection group only), 0.25 h, 0.5 h, 1 h, 2 h, 4 h, 6 h, 8 h, and 24 h after administration. The collected whole blood samples were placed in K2EDTA anticoagulation tubes and centrifuged for 5 min (4000 rpm, 4° C.) to collect the plasma for testing.
10 μL of the mouse plasma sample was taken, and 150 μL of acetonitrile solvent (containing the internal standard compound) was added to precipitate protein. After the resultant was vortexed for 0.5 min and centrifuged (4700 rpm, 4° C.) for 15 min, the supernatant was subjected to 2-fold dilution with water containing 0.05% (v/v) FA and was then subjected to quantitative measurement in LC-MS/MS system (AB Sciex Triple Quad 6500+). A calibration standard curve was prepared in CB17-SCID mouse plasma along with quality control samples to determine the plasma concentration. As for a 10× diluted sample, 2 μL of sample was taken and 18 μL of blank plasma was added. After being vortexed for 0.5 min, the mixture was added with 300 μL of acetonitrile solvent (containing the internal standard compound) so as to precipitate protein. The rest of the processing steps were the same as those for the undiluted samples.

[2] = Metabolic stability in liver microsomes (CD-1 mouse); format: in vitro ADME; details: pH 7.4; CD-1 mouse liver microsomes 0.5 mg/mL, compound 1 μM, NADPH 1 mM, 37° C.
Description: (§1) 1. Source of liver microsomes: human liver microsomes (Corning 452117), CD-1 mouse liver microsomes (XENOTECH M1000)
(§2) 1. Formulation of 100 mM phosphate buffer solution (PBS): 7.098 g of Na2HPO4 was weighed and ultrasonically dissolved in 500 mL of pure water to form Solution A. 3.400 g of KH2PO4 was weighed and ultrasonically dissolved in 250 mL of pure water to form Solution B. Solution A was placed in a stirrer and Solution B was slowly added until the pH value reached 7.4, thus formulating 100 mM PBS buffer solution.
(§3) The reaction system was formulated according to Table 3 below.
(§4) 3. The reaction system was placed in a water bath at 37° C. and pre-incubated for 10 minutes. 40 μL of 10 mM NADPH solution (NADPH was dissolved in 100 mM phosphate buffer solution) was added into the reaction system, and the final concentration of NADPH was 1 mM. 40 μL of Phosphate buffer solution was used instead of the NADPH solution as a negative control. The negative control was used to rule out the influence caused by the chemical stability of the compounds per se.
(§5) 4. The reaction system was added with 4 μL of 100 μM the compound of the present disclosure and Verapamil (the positive control compound) (DMSO as the vehicle), so that the reaction was initiated. The final concentration of the compound was 1 μM.
(§6) 5. At 0.5, 15, 30, 45 and 60 minutes, after being well mixed in a vortex oscillator, 50 μL of the incubated samples were taken out respectively, and the reaction was terminated with ice acetonitrile (4-fold) containing an internal standard. The samples were centrifuged at 3220 g for 45 minutes. After the centrifugation, 90 μL of the supernatants were transferred to a sample plate and mixed well with 90 μL of ultrapure water for LC-MS/MS analysis.
(§7) All data were calculated by Microsoft Excel software. Peak areas were determined from the extracted ion chromatograms. The in-vitro half-life (t1/2) of the parent drug was determined by the linear fitting of the natural logarithm of the elimination percentage of the parent drug versus time.
(§8) The in-vitro half-life (t1/2) was calculated from the slope: […]

[3] = Metabolic stability in liver microsomes (human); format: in vitro ADME; details: pH 7.4; Human being liver microsomes 0.5 mg/mL, compound 1 μM, NADPH 1 mM, 37° C.
Description: as §1, §2, §3, §4, §5, §6, §7, §8

| SMILES | IC50 (WI-38 cells) [nM] | IC50 (Daudi cells) [nM] | Drug Exposure [1] [µg·h/mL] | Max. Drug Conc. [1] [ng/mL] | Peak Time of Drug Conc. [1] [h] | half-life ([1]; mouse, plasma, read-out: Drug Elimination Half-life (converted)) [h] | half-life at 1 μM [2] [h] | half-life at 1 μM [3] [h] |
| --- | --- | --- | --- | --- | --- | --- | --- | --- |
| CC(C)OC(=O)NC1CCC(c2ncc(-c3ccc(Nc4cnn(C)c4)cc3S(=O)(=O)C3CC3)s2)CC1 (stereo not drawn) [Example 70, isopropyl trans-N-[4-[5-[2-cyclopropylsulfonyl]-4-[(1-methylpyrazol-4-yl)amino]phenyl]thiazol-2-yl]cyclohexyl]carbamate] | 21000 | 8 | 137.892 | 32840 | 0.75 | 5 |  |  |
| CC(C)OC(=O)N[C@H]1CC[C@H](c2ncc(-c3ccc(Nc4cc(CO)[nH]n4)cc3S(=O)(=O)C3CC3)s2)CC1 [Example 72, isopropyl trans-(4-(5-(2-(cyclopropylsulfonyl)-4-((5-(hydroxymethyl)-1H-pyrazol-3-yl)amino)phenyl)thiazol-2-yl)cyclohexyl)carbamate] | 20000 | 4 |  |  |  |  | 4.52 | 7.03 |
| CC(C)OC(=O)NC1CCC(c2ncc(-c3ccc(Nc4cnn(CCO)c4)cc3S(=O)(=O)C3CC3)s2)CC1 (stereo not drawn) [Example 84, isopropyl trans-N-[4-[5-[2-cyclopropylsulfonyl]-4-[[1-(2-(hydroxyethyl)pyrazol-4-yl]amino]phenyl]thiazol-2-yl]cyclohexyl]carbamate] | > 25000 | 7 |  |  |  |  | 1.87 | 1.12 |
| CC(C)OC(=O)NC1CCC(c2ncc(-c3ccc(Nc4cnn(CCF)c4)cc3S(=O)(=O)C3CC3)s2)CC1 (stereo not drawn) [Example 85, isopropyl trans-N-[4-[5-[2-cyclopropylsulfonyl]-4-[[1-(2-fluoroethyl)pyrazol-4-yl]amino]phenyl]thiazol-2-yl]cyclohexyl]carbamate] | 17000 | 0.6 |  |  |  |  | 0.85 | 1.37 |
| CC(C)OC(=O)NC1CCC(c2ncc(-c3ccc(Nc4cnn(C5COC5)c4)cc3S(=O)(=O)C3CC3)s2)CC1 (stereo not drawn) [Example 86, isopropyl trans-N-[4-[5-[2-cyclopropylsulfonyl]-4-[[1-(oxetan-3-yl)pyrazol-4-yl]amino]phenyl]thiazol-2-yl]cyclohexyl]carbamate] | > 25000 | 3 |  |  |  |  | 1.4 | 1.78 |

— patent US20230142274A1 (SIMCERE PHARMACEUTICAL CO., LTD., priority 2020, published 2023)
